# Species: Rattus norvegicus
# Test: Open TG-GATES - Regimen: Daily Repeat
# Assay type: toxicity, organism-based, Sprague-Dawley
# Parameters: regimen Daily Repeat, gender Male, age 6 weeks
# Conditions: in vivo, po, route gavage; for gamma-GTP / ALP / ALT / AST / BUN / CRE / Ca / Cl / DBIL / GLC / IP / K / LDH / Na / PL / RALB / TBIL / TC / TG / TP: tissue Plasma; for APTT / Bas / Eos / Fbg / Ht / Lym / MCH / MCHC / MCV / Mono / Neu / PT / Plat / RBC / Ret / WBC: tissue Blood; for KIDNEY_L / KIDNEY_R / KIDNEY_TOTAL: tissue Kidney; for LIVER: tissue Liver
# [1] = 30 mg/kg, 72 h, dose level Middle, time 3 day
# [2] = 30 mg/kg, […], dose level Middle, time 7 day
# [3] = 30 mg/kg, […], dose level Middle, time 14 day
# [4] = 30 mg/kg, […], dose level Middle, time 28 day
compound,measurement,setting,value
Cc1cccc(Nc2cc(Cl)nc(SCC(=O)O)n2)c1C [PIRINIXIC ACID],gamma-GTP,"10 mg/kg, […], dose level Low, time 28 day",1.2 IU/L
same,TERMINAL_BW,[1],229.5 g
same,APTT,[1],15.8 s
same,Bas,[1],0%
same,Eos,[1],0.8%
same,Fbg,[1],199.8 mg/dL
same,Ht,[1],39.5%
same,Lym,[1],71.6%
same,MCH,[1],21.7 pg
same,MCHC,[1],34.3%
same,MCV,[1],63.4 fL
same,Mono,[1],3.2%
same,Neu,[1],23.8%
same,PT,[1],12.4 s
same,Plat,[1],106.4 x10_4/uL
same,RBC,[1],623.8 x10_4/ul
same,Ret,[1],5.5%
same,WBC,[1],85.4 x10_2/uL
same,KIDNEY_L,[1],1 g
same,KIDNEY_R,[1],1 g
same,KIDNEY_TOTAL,[1],2 g
same,LIVER,[1],15.1 g
same,ALP,[1],1953.2 IU/L
same,ALT,[1],77.6 IU/L
same,AST,[1],112 IU/L
same,BUN,[1],14 mg/dL
same,CRE,[1],0.2 mg/dL
same,Ca,[1],10.7 mg/dL
same,Cl,[1],106.4 meq/L
same,DBIL,[1],0.02 mg/dL
same,GLC,[1],192.6 mg/dL
same,IP,[1],7.1 mg/dL
same,K,[1],4 meq/L
same,LDH,[1],167 IU/L
same,Na,[1],143.6 meq/L
same,PL,[1],106.2 mg/dL
same,RALB,[1],2.6 g/dL
same,TBIL,[1],0.026 mg/dL
same,TC,[1],51 mg/dL
same,TG,[1],31.4 mg/dL
same,TP,[1],5.2 g/dL
same,gamma-GTP,[1],1 IU/L
same,TERMINAL_BW,[2],270.6 g
same,TERMINAL_BW,[3],309.3 g
same,TERMINAL_BW,[4],373.2 g
same,APTT,[2],18 s
same,Bas,[2],0%
same,Eos,[2],0.8%
same,Fbg,[2],230.8 mg/dL
same,Ht,[2],37.9%
same,Lym,[2],76.6%
same,MCH,[2],22.1 pg
same,MCHC,[2],34%
same,MCV,[2],64.9 fL
same,Mono,[2],3.2%
same,Neu,[2],19%
same,PT,[2],12.7 s
same,Plat,[2],115.8 x10_4/uL
same,RBC,[2],585.4 x10_4/ul
same,Ret,[2],5.5%
same,WBC,[2],114.2 x10_2/uL
same,APTT,[3],16.4 s
same,Bas,[3],0%
same,Eos,[3],1%
same,Fbg,[3],214 mg/dL
same,Ht,[3],38.2%
same,Lym,[3],76.8%
same,MCH,[3],21.1 pg
same,MCHC,[3],34.8%
same,MCV,[3],60.5 fL
same,Mono,[3],3.6%
same,Neu,[3],18.2%
same,PT,[3],12.8 s
same,Plat,[3],136.3 x10_4/uL
same,RBC,[3],631.8 x10_4/ul
same,Ret,[3],4.3%
same,WBC,[3],121.9 x10_2/uL
same,APTT,[4],15.2 s
same,Bas,[4],0%
same,Eos,[4],1%
same,Fbg,[4],223.8 mg/dL
same,Ht,[4],39.5%
same,Lym,[4],78%
same,MCH,[4],19.6 pg
same,MCHC,[4],34.9%
same,MCV,[4],56.2 fL
same,Mono,[4],3%
same,Neu,[4],17.6%
same,PT,[4],12.4 s
same,RBC,[4],703.4 x10_4/ul
same,Ret,[4],3.3%
same,WBC,[4],108.3 x10_2/uL
same,KIDNEY_L,[2],1.2 g
same,KIDNEY_R,[2],1.1 g
same,KIDNEY_TOTAL,[2],2.3 g
same,KIDNEY_L,[3],1.4 g
same,KIDNEY_R,[3],1.3 g
same,KIDNEY_TOTAL,[3],2.7 g
same,KIDNEY_L,[4],1.5 g
same,KIDNEY_R,[4],1.5 g
same,KIDNEY_TOTAL,[4],3 g
same,LIVER,[2],21.7 g
same,LIVER,[3],25.2 g
same,LIVER,[4],29.4 g
same,ALP,[2],1797.4 IU/L
same,ALT,[2],53 IU/L
same,AST,[2],71.8 IU/L
same,BUN,[2],19.4 mg/dL
same,CRE,[2],0.2 mg/dL
same,Ca,[2],11.2 mg/dL
same,Cl,[2],103 meq/L
same,DBIL,[2],0.014 mg/dL
same,GLC,[2],191.8 mg/dL
same,IP,[2],7 mg/dL
same,K,[2],4.1 meq/L
same,LDH,[2],180.2 IU/L
same,Na,[2],142.2 meq/L
same,PL,[2],139 mg/dL
same,RALB,[2],2.9 g/dL
same,TBIL,[2],0.032 mg/dL
same,TC,[2],71.6 mg/dL
same,TG,[2],46 mg/dL
same,TP,[2],6.1 g/dL
same,gamma-GTP,[2],1 IU/L
same,ALP,[3],1895.2 IU/L
same,ALT,[3],48.2 IU/L
same,AST,[3],66.6 IU/L
same,BUN,[3],19.2 mg/dL
same,CRE,[3],0.2 mg/dL
same,Ca,[3],10.5 mg/dL
same,Cl,[3],102.6 meq/L
same,DBIL,[3],0.016 mg/dL
same,GLC,[3],194.6 mg/dL
same,IP,[3],7.1 mg/dL
same,K,[3],3.9 meq/L
same,LDH,[3],114 IU/L
same,Na,[3],141.8 meq/L
same,PL,[3],144.4 mg/dL
same,RALB,[3],2.9 g/dL
same,TBIL,[3],0.034 mg/dL
same,TC,[3],69.6 mg/dL
same,TG,[3],51.6 mg/dL
same,TP,[3],6.1 g/dL
same,gamma-GTP,[3],1.4 IU/L
same,ALP,[4],1970.8 IU/L
same,ALT,[4],47.2 IU/L
same,AST,[4],62.4 IU/L
same,BUN,[4],18.2 mg/dL
same,CRE,[4],0.2 mg/dL
same,Ca,[4],10.7 mg/dL
same,Cl,[4],102.8 meq/L
same,DBIL,[4],0.012 mg/dL
same,GLC,[4],189.2 mg/dL
same,IP,[4],7.2 mg/dL
same,K,[4],3.7 meq/L
same,LDH,[4],111.4 IU/L
same,Na,[4],141.6 meq/L
same,PL,[4],149 mg/dL
same,RALB,[4],3 g/dL
same,TBIL,[4],0.05 mg/dL
same,TC,[4],70.6 mg/dL
same,TG,[4],55.4 mg/dL
same,TP,[4],6.5 g/dL

# — ChEMBL document CHEMBL3885861, “Open TG-GATES”
